Reference: patent publication US9145415B2, “Nitrogen-containing heterocyclic compound or salt thereof” (FUJIFILM Corporation, priority 2012, dated 2015)

Assays:
[1] = system: Molm-13 cells; experiment: Leukemia cell proliferation inhibition test (ATPlite), Molm-13; format: cell-based; conditions: Homo sapiens, MOLM-13, 72 h, Molm-13, 72 hours culture, ATPlite; GI50 per method; read-out: MOLM13 cell proliferation inhibition effect
Method in brief: (§1)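 72 h proliferation, 37° C/5% CO2; 10,000 cells/well, RPMI/10% FBS; ATPlite luminescence (RLU); 0.1% DMSO taken as 0% inhibition; GI50 via sigmoid fit, n=2.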

[2] = biological target: T1, human FLT3 protein (FLT3 (WT)) (Homo sapiens, UniProt P36888); experiment: FLT3 inhibition test (FLT3 enzyme inhibition, time-resolved fluorescence of substrate peptide phosphorylation); format: biochemical; conditions: GST-fused human FLT3 (564 to 993 aa), ATP 50 μM; read-out: FLT3 (WT) enzyme inhibition activity
T1 construct: human FLT3 protein (intracellular region, 564 to 993 aa); GST; purchased Carna Biosciences; host or cells: baculovirus expression system
T1 sequence (P36888 564-993): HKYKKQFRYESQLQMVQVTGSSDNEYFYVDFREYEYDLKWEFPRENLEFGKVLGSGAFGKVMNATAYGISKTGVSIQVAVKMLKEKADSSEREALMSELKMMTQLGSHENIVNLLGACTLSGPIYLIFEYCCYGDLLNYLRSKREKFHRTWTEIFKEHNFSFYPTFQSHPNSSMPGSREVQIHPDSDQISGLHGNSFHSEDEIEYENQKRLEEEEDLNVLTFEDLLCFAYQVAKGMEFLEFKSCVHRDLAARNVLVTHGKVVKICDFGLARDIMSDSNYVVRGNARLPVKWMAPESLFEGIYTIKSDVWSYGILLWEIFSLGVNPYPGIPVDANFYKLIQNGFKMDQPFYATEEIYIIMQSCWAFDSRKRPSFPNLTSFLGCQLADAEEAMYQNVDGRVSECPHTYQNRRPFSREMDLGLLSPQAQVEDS
Method in brief: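 Substrate peptide phosphorylation detected by time-resolved fluorescence after a 30 min kinase reaction at 25° C with 50 μM ATP (final). Beforehand, compound and FLT3 (WT, 1.2 μg) stood 15 min at 25° C in HEPES buffer pH 7.5 containing MgCl2, NaCl, BSA and DTT.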

[3] = system: MV4-11 cells; experiment: Leukemia cell proliferation inhibition test (ATPlite), MV4-11; format: cell-based; conditions: Homo sapiens, MV4-11, 72 h, MV4-11, 72 hours culture, ATPlite; GI50 per method; read-out: MV4-11 cell proliferation inhibition effect
Method in brief: as §1

Measured: IC50

COCCNc1nc(Nc2ccc(C#N)cc2)ncc1C#CCCCNC(=O)[C@H](C)N(C)C(=O)/C=C/CN(C)C [Compound 10-50]
< 10 nM: all assays above

COCCN(C)c1nc(Nc2ccc(C#N)cc2)ncc1C#CCCCNC(=O)[C@H](C)N(C)C(=O)/C=C/CN(C)C [Compound 10-51]
< 10 nM: all assays above

CNc1nc(Nc2ccc3c(cnn3C)c2)ncc1C#CCCCNC(=O)[C@H](C)N(C)C(=O)/C=C/CN(C)C [Compound 10-52]
< 10 nM: all assays above

CCNc1nc(Nc2ccc3c(cnn3C)c2)ncc1C#CCCCNC(=O)[C@H](C)N(C)C(=O)/C=C/CN(C)C [Compound 10-53]
< 10 nM: all assays above

C[C@@H](C(=O)NCCCC#Cc1cnc(Nc2ccc3c(cnn3C)c2)nc1NC1CC1)N(C)C(=O)/C=C/CN(C)C [Compound 10-54]
< 10 nM: all assays above

COCCCNc1nc(Nc2ccc3c(cnn3C)c2)ncc1C#CCCCNC(=O)[C@H](C)N(C)C(=O)/C=C/CN(C)C [Compound 10-55]
< 10 nM: all assays above

CNc1nc(Nc2ccc3cnn(C)c3c2)ncc1C#CCCCNC(=O)[C@H](C)N(C)C(=O)/C=C/CN(C)C [Compound 10-56]
< 10 nM: all assays above

CCNc1nc(Nc2ccc3cnn(C)c3c2)ncc1C#CCCCNC(=O)[C@H](C)N(C)C(=O)/C=C/CN(C)C [Compound 10-57]
< 10 nM: all assays above

C[C@@H](C(=O)NCCCC#Cc1cnc(Nc2ccc3cnn(C)c3c2)nc1NC1CC1)N(C)C(=O)/C=C/CN(C)C [Compound 10-58]
< 10 nM: all assays above

COCCCNc1nc(Nc2ccc3cnn(C)c3c2)ncc1C#CCCCNC(=O)[C@H](C)N(C)C(=O)/C=C/CN(C)C [Compound 10-59]
< 10 nM: all assays above

CNc1nc(Nc2ccc3[nH]ncc3c2)ncc1C#CCCCNC(=O)[C@H](C)N(C)C(=O)/C=C/CN(C)C [Compound 10-60]
< 10 nM: all assays above

CCNc1nc(Nc2ccc3[nH]ncc3c2)ncc1C#CCCCNC(=O)[C@H](C)N(C)C(=O)/C=C/CN(C)C [Compound 10-61]
< 10 nM: all assays above

COCCCNc1nc(Nc2ccc3[nH]ncc3c2)ncc1C#CCCCNC(=O)[C@H](C)N(C)C(=O)/C=C/CN(C)C [Compound 10-62]
< 10 nM: all assays above

CNc1nc(Nc2ccc3cn[nH]c3c2)ncc1C#CCCCNC(=O)[C@H](C)N(C)C(=O)/C=C/CN(C)C [Compound 10-63]
< 10 nM: all assays above

CCNc1nc(Nc2ccc3cn[nH]c3c2)ncc1C#CCCCNC(=O)[C@H](C)N(C)C(=O)/C=C/CN(C)C [Compound 10-64]
< 10 nM: all assays above

COCCCNc1nc(Nc2ccc3cn[nH]c3c2)ncc1C#CCCCNC(=O)[C@H](C)N(C)C(=O)/C=C/CN(C)C [Compound 10-65]
< 10 nM: all assays above

CNc1nc(Nc2ccc3[nH]ncc3c2)ncc1C#CCCCNC(=O)[C@@H]1CCCN1C(=O)/C=C/CN(C)C [Compound 10-66, (S,E)-N-(5-(2-((1H-Indazol-5-yl)amino)-4-(methylamino)pyrimidin-5-yl)-4-pentyn-1-yl)-1-(4-(dimethylamino)-2-butenoyl)pyrrolidine-2-carboxamide]
< 10 nM: all assays above

CCNc1nc(Nc2ccc3[nH]ncc3c2)ncc1C#CCCCNC(=O)[C@@H]1CCCN1C(=O)/C=C/CN(C)C [Compound 10-67, (S,E)-N-(5-(2-((1H-Indazol-5-yl)amino)-4-(ethylamino)pyrimidin-5-yl)-4-pentyn-1-yl)-1-(4-(dimethylamino)-2-butenoyl)pyrrolidine-2-carboxamide]
< 10 nM: all assays above

COCCCNc1nc(Nc2ccc3[nH]ncc3c2)ncc1C#CCCCNC(=O)[C@@H]1CCCN1C(=O)/C=C/CN(C)C [Compound 10-68, (S,E)-N-(5-(2-((1H-Indazol-5-yl)amino)-4-((3-methoxypropyl)amino)pyrimidin-5-yl)-4-pentyn-1-yl)-1-(4-(dimethylamino)-2-butenoyl)pyrrolidine-2-carboxamide]
< 10 nM: all assays above

CNc1nc(Nc2ccc3cn[nH]c3c2)ncc1C#CCCCNC(=O)[C@@H]1CCCN1C(=O)/C=C/CN(C)C [Compound 10-69]
< 10 nM: all assays above

CCNc1nc(Nc2ccc3cn[nH]c3c2)ncc1C#CCCCNC(=O)[C@@H]1CCCN1C(=O)/C=C/CN(C)C [Compound 10-70]
< 10 nM: all assays above

COCCCNc1nc(Nc2ccc3cn[nH]c3c2)ncc1C#CCCCNC(=O)[C@@H]1CCCN1C(=O)/C=C/CN(C)C [Compound 10-71]
< 10 nM: all assays above

C[C@@H](C(=O)NCCCC#Cc1cnc(Nc2ccc3[nH]ncc3c2)nc1NC1CC1)N(C)C(=O)/C=C/CN(C)C [Compound 10-72]
< 10 nM: all assays above

C[C@@H](C(=O)NCCCC#Cc1cnc(Nc2ccc3cn[nH]c3c2)nc1NC1CC1)N(C)C(=O)/C=C/CN(C)C [Compound 10-73]
< 10 nM: all assays above

CN(C)C/C=C/C(=O)N1CCC[C@H]1C(=O)NCCCC#Cc1cnc(Nc2ccc3[nH]ncc3c2)nc1NC1CC1 [Compound 10-74]
< 10 nM: all assays above

CN(C)C/C=C/C(=O)N1CCC[C@H]1C(=O)NCCCC#Cc1cnc(Nc2ccc3cn[nH]c3c2)nc1NC1CC1 [Compound 10-75]
< 10 nM: all assays above
